Measured values taken from the supplement of paper PMC10307832.

Compound: C1=CC2=C(C=C(C(=C2N=C1)O)N=NC3=CC4=C(C=C3)C=C(C=C4)S(=O)(=O)O)S(=O)(=O)O + Nc1ncn([C@H]2C[C@H](O)[C@@H](CO)O2)c(=O)n1 [Decitabine] (partner 2 µM)
Assay: relative viability (nuclei count vs DMSO), 5 days (fraction); higher = more cells survive
Conditions: first compound 8 µM
In short: (§1)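 One day after seeding in 1536-well plates, lung cancer cell lines were dosed by pin tool. Dosing was either single-drug or a fixed anchor-drug dose plus five library-drug doses (not always all listed) in √10 steps. After 5 days, nuclei were stained in one fix-and-stain step and counted on 4× images, and relative viability is the nuclei count of treated wells over that of vehicle wells, given as the median of duplicate plates.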

| Cell Line | relative viability |
| --- | --- |
| A-427 | 0.551 |
| NCI-H441 | 0.248 |
| NCI-H661 | 0.573 |
| NCI-H1734 | 0.503 |
| NCI-H460 | 0.387 |
| NCI-H2347 | 0.614 |
| SK-LU-1 | 0.655 |
| 201T | 0.845 |
| NCI-H1915 | 0.274 |
| HCC-827 | 0.306 |
| LXF-289 | 0.31 |
| NCI-H23 | 0.302 |
| NCI-H647 | 0.401 |
| NCI-H1651 | 0.535 |
| EPLC-272H | 0.375 |
| NCI-H1792 | 0.473 |
| NCI-H1355 | 0.352 |
| NCI-H3122 | 0.439 |
| NCI-H1437 | 0.566 |
| NCI-H1755 | 0.698 |
| NCI-H2023 | 0.19 |
| HCC-15 | 0.596 |
| PC-14 | 0.217 |
| EKVX | 0.263 |
| LC-2-ad | 0.812 |

Compound: O=C(NC1CCNCC1)c1n[nH]cc1NC(=O)c1c(Cl)cccc1Cl [AT-7519] + C[C@@H](Oc1cc(-c2cnn(C3CCNCC3)c2)cnc1N)c1c(Cl)ccc(F)c1Cl [Crizotinib] (partner 1 µM)
Assay: as above
Conditions: first compound 0.01 µM
In short: as §1

| Cell Line | relative viability |
| --- | --- |
| HCC-44 | 0.773 |
| LU99A | 0.579 |
| BEN | 0.897 |
| HARA | 1.03 |
| HCC-78 | 0.33 |
| NCI-H322M | 0.848 |
| LCLC-97TM1 | 0.334 |
| NCI-H2009 | 1.21 |
| A-427 | 0.931 |
| NCI-H441 | 0.656 |
| NCI-H661 | 0.978 |
| NCI-H1734 | 0.662 |
| NCI-H460 | 0.858 |
| NCI-H2347 | 0.627 |
| SK-LU-1 | 1.12 |
| 201T | 1.04 |
| NCI-H1915 | 0.933 |

| Cell Line | relative viability |
| --- | --- |
| HCC-827 | 0.895 |
| LXF-289 | 0.838 |
| NCI-H23 | 0.544 |
| NCI-H647 | 0.812 |
| NCI-H1651 | 0.858 |
| EPLC-272H | 0.896 |
| NCI-H1792 | 0.548 |
| NCI-H1355 | 1.1 |
| NCI-H3122 | 0.272 |
| NCI-H1437 | 0.93 |
| NCI-H1755 | 0.837 |
| NCI-H2023 | 0.702 |
| HCC-15 | 0.864 |
| PC-14 | 0.755 |
| EKVX | 0.933 |
| LC-2-ad | 0.465 |

Same assay, conditions: first compound 0.03162 µM

| Cell Line | relative viability |
| --- | --- |
| HCC-44 | 0.781 |
| LU99A | 0.539 |
| BEN | 0.754 |
| HARA | 1.1 |
| HCC-78 | 0.324 |
| NCI-H322M | 0.93 |
| LCLC-97TM1 | 0.254 |
| NCI-H2009 | 1.07 |
| A-427 | 0.823 |
| NCI-H441 | 0.905 |
| NCI-H661 | 1.22 |
| NCI-H1734 | 0.724 |
| NCI-H460 | 0.9 |
| NCI-H2347 | 0.706 |
| SK-LU-1 | 0.799 |
| 201T | 1.1 |
| NCI-H1915 | 0.926 |

| Cell Line | relative viability |
| --- | --- |
| HCC-827 | 0.945 |
| LXF-289 | 0.898 |
| NCI-H23 | 0.446 |
| NCI-H647 | 0.873 |
| NCI-H1651 | 0.846 |
| EPLC-272H | 0.918 |
| NCI-H1792 | 0.916 |
| NCI-H1355 | 1.02 |
| NCI-H3122 | 0.277 |
| NCI-H1437 | 1.06 |
| NCI-H1755 | 1.03 |
| NCI-H2023 | 0.697 |
| HCC-15 | 0.718 |
| PC-14 | 0.911 |
| EKVX | 0.85 |
| LC-2-ad | 0.467 |

Same assay, conditions: first compound 0.3162 µM

| Cell Line | relative viability |
| --- | --- |
| HCC-44 | 0.903 |
| LU99A | 0.517 |
| BEN | 0.985 |
| HARA | 0.974 |
| HCC-78 | 0.331 |
| NCI-H322M | 0.892 |
| LCLC-97TM1 | 0.328 |
| NCI-H2009 | 1.12 |
| A-427 | 0.964 |
| NCI-H441 | 0.673 |
| NCI-H661 | 1.16 |
| NCI-H1734 | 0.544 |
| NCI-H460 | 0.608 |
| NCI-H2347 | 0.645 |
| SK-LU-1 | 0.713 |
| 201T | 1.03 |
| NCI-H1915 | 0.793 |

| Cell Line | relative viability |
| --- | --- |
| HCC-827 | 0.862 |
| LXF-289 | 0.811 |
| NCI-H23 | 0.543 |
| NCI-H647 | 0.965 |
| NCI-H1651 | 0.909 |
| EPLC-272H | 0.809 |
| NCI-H1792 | 0.904 |
| NCI-H1355 | 1.13 |
| NCI-H3122 | 0.241 |
| NCI-H1437 | 0.9 |
| NCI-H1755 | 0.935 |
| NCI-H2023 | 0.605 |
| HCC-15 | 0.741 |
| PC-14 | 0.818 |
| EKVX | 0.699 |
| LC-2-ad | 0.499 |

Same assay, conditions: first compound 1 µM

| Cell Line | relative viability |
| --- | --- |
| HCC-44 | 0.778 |
| LU99A | 0.357 |
| BEN | 0.83 |
| HARA | 0.786 |
| HCC-78 | 0.42 |
| NCI-H322M | 0.901 |
| LCLC-97TM1 | 0.191 |
| NCI-H2009 | 0.295 |
| A-427 | 0.576 |
| NCI-H441 | 0.428 |
| NCI-H661 | 1.04 |
| NCI-H1734 | 0.305 |
| NCI-H460 | 0.0144 |
| NCI-H2347 | 0.573 |
| SK-LU-1 | 0.48 |
| 201T | 1.09 |
| NCI-H1915 | 0.741 |

| Cell Line | relative viability |
| --- | --- |
| HCC-827 | 0.855 |
| LXF-289 | 0.816 |
| NCI-H23 | 0.318 |
| NCI-H647 | 0.411 |
| NCI-H1651 | 0.847 |
| EPLC-272H | 0.934 |
| NCI-H1792 | 1.09 |
| NCI-H1355 | 0.943 |
| NCI-H3122 | 0.208 |
| NCI-H1437 | 0.361 |
| NCI-H1755 | 0.688 |
| NCI-H2023 | 0.125 |
| HCC-15 | 0.502 |
| PC-14 | 0.811 |
| EKVX | 0.894 |
| LC-2-ad | 0.234 |
